Measurements published in ChEMBL document CHEMBL1201862, “PubChem BioAssay data set” (2004).
Activity calls are given as the source filed them.

Tests used:
[1] = biological target: T1, Heat shock factor protein 1 (Mus musculus, UniProt P38532); assay: HSF1 potentiators in luciferase reporter cells, confirmation, cell-based, NIH3T3, luminescence, dose retest (AID 435004); type: functional;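 further: stress induced by proteasome inhibitor MG132 added 30 min after compound; luciferase reporter driven by HSF1 response element in NIH3T3 cells; actives raise luminescence as potentiators of the MG132 stress response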
T1 sequence (P38532 whole entry): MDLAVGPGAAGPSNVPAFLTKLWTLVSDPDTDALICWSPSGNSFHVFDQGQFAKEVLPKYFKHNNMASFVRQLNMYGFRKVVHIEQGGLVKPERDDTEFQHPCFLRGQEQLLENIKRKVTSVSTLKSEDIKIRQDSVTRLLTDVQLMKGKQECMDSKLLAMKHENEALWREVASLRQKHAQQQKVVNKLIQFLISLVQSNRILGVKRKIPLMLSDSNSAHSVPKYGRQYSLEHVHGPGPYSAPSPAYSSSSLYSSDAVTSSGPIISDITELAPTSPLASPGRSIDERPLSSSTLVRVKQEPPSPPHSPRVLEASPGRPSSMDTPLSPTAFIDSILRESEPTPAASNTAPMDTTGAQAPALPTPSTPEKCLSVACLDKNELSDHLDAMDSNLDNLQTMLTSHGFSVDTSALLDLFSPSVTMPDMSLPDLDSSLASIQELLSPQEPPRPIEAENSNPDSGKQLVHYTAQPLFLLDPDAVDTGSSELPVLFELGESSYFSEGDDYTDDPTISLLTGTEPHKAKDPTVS

cells [2] = type: functional, cell-based
cells [3] = type: functional, cell-based; remark: listed apart in the source
Cytochrome P450 2D6 = Cytochrome P450 2D6 (Homo sapiens, UniProt P10635);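 further: CYP2D6 member of a cytochrome P450 panel assay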
H4 = assay: Luminescence Cell-Based Dose Response HTS to Identify Activators of 5'UTR Stem-Loop Driven Prion Protein mRNA Translation in H4 Neuroglioblastoma Cells. [Related pubchem assays: 1829 (Project Summary), 1814 (Primary HTS)]; type: functional; details: Homo sapiens
[4] = Luminescence Cell-Based Dose Response HTS to Identify Activators of Luciferase Translation or Activity in H4 […] Cells. [Related pubchem assays: 1829 (Project Summary), 1814 (Primary HTS)]; type: functional
[5] = Luminescence Cell-Based Dose Confirmation HTS to Identify Activators of 5'UTR Stem-Loop Driven Alpha-Synuclein mRNA Translation in H4 Neuroglioblastoma Cells. [Related pubchem assays: 1829 (Project Summary), 1814 (Primary HTS)]; type: functional
Protein skinhead-1 = biological target: T2, Protein skinhead-1 (Caenorhabditis elegans, UniProt P34707); type: functional
T2 sequence (P34707 whole entry): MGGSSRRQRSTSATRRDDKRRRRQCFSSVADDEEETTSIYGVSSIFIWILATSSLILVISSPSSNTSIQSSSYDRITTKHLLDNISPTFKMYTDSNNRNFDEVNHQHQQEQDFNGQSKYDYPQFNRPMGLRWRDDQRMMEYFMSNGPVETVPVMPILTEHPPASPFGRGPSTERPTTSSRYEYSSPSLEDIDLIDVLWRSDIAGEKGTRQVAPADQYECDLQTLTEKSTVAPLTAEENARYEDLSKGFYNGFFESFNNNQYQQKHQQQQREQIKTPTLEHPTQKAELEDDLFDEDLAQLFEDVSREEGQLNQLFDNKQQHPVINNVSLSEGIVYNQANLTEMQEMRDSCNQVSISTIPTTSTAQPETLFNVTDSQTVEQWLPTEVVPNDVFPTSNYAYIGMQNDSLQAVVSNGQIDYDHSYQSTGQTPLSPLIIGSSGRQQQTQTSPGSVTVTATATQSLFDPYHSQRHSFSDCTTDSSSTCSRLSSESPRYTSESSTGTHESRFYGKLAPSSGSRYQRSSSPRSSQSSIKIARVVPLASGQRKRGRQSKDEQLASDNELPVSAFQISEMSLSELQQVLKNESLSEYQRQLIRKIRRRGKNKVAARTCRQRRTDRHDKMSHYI

[6] = biological target: T3, Ubiquitin-conjugating enzyme E2 N (Homo sapiens, UniProt P61088); type: functional;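 further: Dose-response confirmation in a TR-FRET assay detecting UBC13-driven polyubiquitin chain formation, inhibition measured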
T3 sequence (P61088 whole entry): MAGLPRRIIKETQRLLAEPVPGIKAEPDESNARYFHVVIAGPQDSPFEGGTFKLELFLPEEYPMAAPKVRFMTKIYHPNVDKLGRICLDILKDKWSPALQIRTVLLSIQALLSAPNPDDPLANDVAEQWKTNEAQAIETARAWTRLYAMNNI

Vero = assay: cells; type: functional; details: Chlorocebus sabaeus
Cytochrome P450 3A4 = Cytochrome P450 3A4 (Homo sapiens, UniProt P08684);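 further: CYP3A4 tested as one member of a cytochrome P450 panel screen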
Cytochrome P450 2C19 = Cytochrome P450 2C19 (Homo sapiens, UniProt P33261); assay: Cytochrome panel assay with activity outcomes. Panel member name: p450-cyp2c19 Compounds with AC50 equal or less than 10 uM are considered active; type: functional
Streptokinase A = biological target: T4, Streptokinase A (Streptococcus pyogenes serotype M1, UniProt P10520); assay: S. pyogenes streptokinase expression inhibitors, potency, dose response, plasminogen activation absorbance, OD405 (AID 1914); type: functional, Streptococcus pyogenes M1 GAS;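 further: secreted streptokinase activity via plasminogen activation per viability signal from cell pellet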
T4 sequence (P10520 whole entry): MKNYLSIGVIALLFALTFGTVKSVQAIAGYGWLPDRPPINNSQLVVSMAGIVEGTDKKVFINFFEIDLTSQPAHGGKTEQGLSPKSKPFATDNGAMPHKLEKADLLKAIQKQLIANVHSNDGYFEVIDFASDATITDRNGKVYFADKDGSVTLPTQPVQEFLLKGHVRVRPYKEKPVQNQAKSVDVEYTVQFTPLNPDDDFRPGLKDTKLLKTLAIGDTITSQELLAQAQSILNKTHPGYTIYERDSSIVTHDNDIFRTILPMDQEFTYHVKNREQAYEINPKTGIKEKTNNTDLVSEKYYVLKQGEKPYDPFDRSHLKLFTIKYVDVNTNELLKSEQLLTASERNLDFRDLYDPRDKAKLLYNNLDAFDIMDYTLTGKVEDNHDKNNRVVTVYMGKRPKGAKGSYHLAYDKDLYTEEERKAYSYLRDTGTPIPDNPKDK

Streptococcus = assay: Group A Streptococcus viability loss, dose response, counter-screen for streptokinase expression inhibitor project, luminescence, BacTiterGlo (AID 1915); type: functional, organism-based;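 further: potency for reduction of bacterial viability or growth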
[7] = system: Streptococcus sp. 'group A'; assay: growth inhibition of control SK(-) GAS strain, dose response, counter-screen for streptokinase expression inhibitor project, luminescence, kanamycin, BacTiterGlo, confirmation (AID 1900); type: functional, organism-based
[8] = HEp-2 cell cytotoxicity, dose response, cytotoxicity control for RSV inhibitor project, HTS (AID 2410); type: functional; details: human respiratory syncytial virus

Sequence of Cytochrome P450 2D6 (P10635 whole entry): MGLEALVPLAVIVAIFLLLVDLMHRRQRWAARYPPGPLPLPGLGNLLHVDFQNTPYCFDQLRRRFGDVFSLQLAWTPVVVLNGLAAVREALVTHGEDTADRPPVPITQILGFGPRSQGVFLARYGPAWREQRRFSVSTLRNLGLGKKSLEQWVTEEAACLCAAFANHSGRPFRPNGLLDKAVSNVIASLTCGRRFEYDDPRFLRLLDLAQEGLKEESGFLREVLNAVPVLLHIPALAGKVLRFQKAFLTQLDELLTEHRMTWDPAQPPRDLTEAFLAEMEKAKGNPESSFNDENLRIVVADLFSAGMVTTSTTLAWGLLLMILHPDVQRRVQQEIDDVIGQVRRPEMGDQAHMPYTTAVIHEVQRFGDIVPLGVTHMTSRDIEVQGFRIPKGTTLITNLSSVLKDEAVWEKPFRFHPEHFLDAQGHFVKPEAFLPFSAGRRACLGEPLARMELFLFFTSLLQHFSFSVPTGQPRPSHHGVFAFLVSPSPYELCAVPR
Sequence of Cytochrome P450 2C19 (P33261 whole entry): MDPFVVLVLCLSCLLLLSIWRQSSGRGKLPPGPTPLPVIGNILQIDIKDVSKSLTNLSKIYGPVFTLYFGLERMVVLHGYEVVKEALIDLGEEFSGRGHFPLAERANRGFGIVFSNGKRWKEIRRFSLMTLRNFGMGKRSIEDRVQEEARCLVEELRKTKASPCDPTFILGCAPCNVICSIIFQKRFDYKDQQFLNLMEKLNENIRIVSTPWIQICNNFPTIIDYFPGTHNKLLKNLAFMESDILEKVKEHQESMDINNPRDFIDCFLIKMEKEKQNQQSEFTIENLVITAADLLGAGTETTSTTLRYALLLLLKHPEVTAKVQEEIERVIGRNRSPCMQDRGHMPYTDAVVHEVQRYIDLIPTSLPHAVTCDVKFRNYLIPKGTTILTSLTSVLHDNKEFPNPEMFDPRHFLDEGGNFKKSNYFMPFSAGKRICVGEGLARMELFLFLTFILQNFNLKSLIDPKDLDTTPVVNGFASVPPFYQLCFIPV
Sequence of Cytochrome P450 3A4 (P08684 whole entry): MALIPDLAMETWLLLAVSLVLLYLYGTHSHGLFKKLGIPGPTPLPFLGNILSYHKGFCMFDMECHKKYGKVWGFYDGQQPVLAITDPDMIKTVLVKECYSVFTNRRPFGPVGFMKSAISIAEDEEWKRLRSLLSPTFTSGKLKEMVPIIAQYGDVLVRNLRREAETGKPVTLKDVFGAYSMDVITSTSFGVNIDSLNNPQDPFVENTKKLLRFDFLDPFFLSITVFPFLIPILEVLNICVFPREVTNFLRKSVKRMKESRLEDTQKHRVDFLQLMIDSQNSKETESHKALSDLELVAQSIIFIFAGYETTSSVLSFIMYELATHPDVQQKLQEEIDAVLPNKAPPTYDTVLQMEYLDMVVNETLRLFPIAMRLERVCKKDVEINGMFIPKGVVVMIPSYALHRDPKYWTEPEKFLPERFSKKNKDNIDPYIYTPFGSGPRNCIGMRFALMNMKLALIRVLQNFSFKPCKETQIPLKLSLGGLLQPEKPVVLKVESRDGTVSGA

Structure (SMILES): CSc1ccccc1-n1nnnc1SCC(=O)NCc1cccs1
- EC50 [1]: > 260 µM (inactive)

Structure (SMILES): Cc1ccc(Nc2nc(CSc3nnc(-c4ccncc4)n3C)cs2)cc1
- EC50 (cells [2]): > 350 µM (not active)
- EC50 (cells [3]): > 350 µM (not active)

Structure (SMILES): CCN1CCN(S(=O)(=O)c2ccc(Cl)nc2)CC1
- AC50 (Cytochrome P450 2D6): 12.6 µM (inconclusive)

Structure (SMILES): CCNc1nc(Cl)nc(NNC(=O)C(C)Oc2ccccc2)n1 (centres undefined)
- EC50 (cells [2]): > 350 µM (not active)
- EC50 (cells [3]): 47 µM (active)

Structure (SMILES): Cc1ccc(C(=O)Nc2nnc(C3CCCCC3)s2)o1
- EC50 [1]: 44.6 µM (active)

Structure (SMILES): Cc1cc(C)cc(Oc2ccccc2/C=C\C(=O)O)c1
- EC50 [1]: > 260 µM (inactive)

Structure (SMILES): CCOc1ccc2c(=O)c(Oc3ccccc3OCC)coc2c1
- EC50 (H4): 19.3 µM (active)
- EC50 [4]: 7.99 µM (active)
- EC50 [5]: 7.35 µM (active)
- IC50 (Protein skinhead-1): > 100 µM (inactive)

Structure (SMILES): COCCCN(CC(=O)O)S(=O)(=O)c1cccc(Cl)c1
- EC50 [1]: > 260 µM (inactive)

Structure (SMILES): Cc1cccc(N(C(=O)c2snc(C(N)=O)c2N)C(C(=O)NC2CCCC2)c2ccc(C)o2)c1 (centres undefined)
- IC50 [6]: > 20 µM (inactive)

Structure (SMILES): COc1cc(OCc2ccccc2)c(C(=O)/C=C/c2ccc3c(c2)OCO3)c(OC)c1OC
- CC50 (Vero): > 25 µM (active)

Structure (SMILES): CCOC(=O)c1c(C)sc2c1N(C(=O)CN(CC)CC)c1ccccc1S2
- EC50 [1]: > 260 µM (inactive)

Structure (SMILES): CSc1nccc(Nc2ccccc2)c1C#N
- IC50 [6]: > 20 µM (inactive)

Structure (SMILES): COc1ccccc1CCNS(=O)(=O)c1cc2c3c(c1)C(C)C(=O)N3CCC2 (centres undefined)
- EC50 (cells [2]): > 350 µM (not active)
- EC50 (cells [3]): > 350 µM (not active)

Structure (SMILES): COc1cccc(Cn2c(=O)cnc3cnc(OCc4ccccc4)nc32)c1
- AC50 (Cytochrome P450 2D6): 39.8 µM (inconclusive)

Structure (SMILES): C=CCOC(=O)/C(=C\c1cccc2ccccc12)NC(=O)c1ccccc1
- AC50 (Cytochrome P450 2D6): 22.4 µM (inconclusive)

Structure (SMILES): Cc1cccc(C(=O)O/N=C(\N)c2ccc(Cl)cc2)c1
- EC50 (cells [2]): > 350 µM (not active)
- EC50 (cells [3]): 16.7 µM (active)

Structure (SMILES): O=c1c2ccccc2nnn1CSc1ccc2c(c1)OCCO2
- AC50 (Cytochrome P450 2D6): 28.2 µM (inconclusive)

Structure (SMILES): C=CCN(C(=O)CCC(=O)Nc1cc(C)on1)C(C(=O)NC(C)(C)C)c1cccc(OC)c1OC (centres undefined)
- EC50 [1]: > 260 µM (inactive)

Structure (SMILES): N#Cc1sc2nc(N3CCCCC3)c3c(c2c1N)CCCC3
- CC50 (Vero): > 25 µM (active)

Structure (SMILES): COC(=O)c1sc(N)c(C(=O)OC)c1CSc1nc2sc3c(c2c(=O)n1C)CCC3
- EC50 [1]: > 260 µM (inactive)

Structure (SMILES): COc1cc(NC(=O)C2=C(N3CCOCC3)/C(=C\c3ccc(Br)cc3)CC2)cc(OC)c1OC
- EC50 [1]: > 260 µM (inactive)

Structure (SMILES): CC1=CC(=O)C=C(C)C1=NOC(=O)/C=C\c1ccccc1
- EC50 [1]: > 260 µM (inactive)

Structure (SMILES): Cc1nnc(SCc2cccc(Cl)c2)n(N)c1=O
- EC50 (cells [2]): > 350 µM (not active)
- EC50 (cells [3]): > 350 µM (not active)

Structure (SMILES): CC1=NCCc2c1[nH]c1cc(O)ccc21
- AC50 (Cytochrome P450 2D6): 7.94 µM (inconclusive)

Structure (SMILES): CC(=O)N1c2ccc(S(=O)(=O)NCCc3ccccc3)cc2CC1C (centres undefined)
- EC50 (cells [2]): > 350 µM (not active)
- EC50 (cells [3]): > 350 µM (not active)

Structure (SMILES): CCOC(=O)N1CCN(C(=O)c2ccc3c(c2)N(Cc2ccccc2)CCS3)CC1
- IC50 [6]: > 20 µM (inactive)

Structure (SMILES): Cc1cnc(CNc2nc(-c3ccccc3Cl)nc3ccccc23)cn1
- AC50 (Cytochrome P450 3A4): 7.94 µM (inconclusive)
- AC50 (Cytochrome P450 2D6): 25.1 µM (inconclusive)

Structure (SMILES): CC(C)c1ccc2oc(=O)cc(CN3CCOCC3)c2c1
- EC50 (cells [2]): > 350 µM (not active)
- EC50 (cells [3]): > 350 µM (not active)

Structure (SMILES): COc1nccc(C(F)(F)F)c1C(=O)NC(=O)Nc1ccccc1
- EC50 (cells [2]): > 350 µM (not active)
- EC50 (cells [3]): > 350 µM (not active)

Structure (SMILES): Cc1cc(NC(=O)c2ccccc2)n(-c2nc3ccccc3[nH]2)n1
- EC50 (cells [2]): > 350 µM (not active)
- EC50 (cells [3]): 63.9 µM (active)

Structure (SMILES): Cc1ccc(Cc2cnc(NC(=O)c3cccs3)s2)cc1
- AC50 (Cytochrome P450 2D6): 15.8 µM (inconclusive)

Structure (SMILES): COc1ccc(Cl)cc1C=CC=NNS(=O)(=O)c1ccc(C)cc1
- CC50 (Vero): > 25 µM (active)

Structure (SMILES): CSc1nc(C)cc(Nc2ccc(O)c(CN3CCCCC3)c2)n1
- AC50 (Cytochrome P450 2D6): 3.16 µM (inconclusive)

Structure (SMILES): Cc1ccc(S(=O)(=O)N[C@H]2COC(=O)C/C=C\[C@@H](C)[C@H](NS(=O)(=O)c3ccc(C)cc3)COC(=O)[C@H](C)NC(=O)C/C=C\[C@H]2C)cc1
- AC50 (Cytochrome P450 2C19): inconclusive
- AC50 (Cytochrome P450 2D6): 3.98 µM (inconclusive)

Structure (SMILES): c1ccc(Nc2ncncc2-c2ccoc2)cc1
- AC50 (Cytochrome P450 2C19; read-out: AC50): 15.8 µM (inconclusive)
- AC50 (Cytochrome P450 2D6): 25.1 µM (inconclusive)

Structure (SMILES): N#C/C(C[n+]1cn(NC(=O)Nc2ccccc2)cn1)=N/O
- EC50 [1]: > 260 µM (inactive)

Structure (SMILES): Cn1c(Cn2nnc3ccccc32)nnc1SCC(=O)c1ccccc1F
- EC50 [1]: > 260 µM (inactive)

Structure (SMILES): O=[N+]([O-])c1cccc(-c2ccc3nnc(SCc4ccccn4)n3n2)c1
- EC50 [1]: > 260 µM (inactive)

Structure (SMILES): Cc1cccn2c(=O)c3cc(C(=O)NC4CCCC4)c(=N)n(Cc4ccc(F)cc4)c3nc12
- CC50 (Vero): > 25 µM (active)

Structure (SMILES): Cc1cc(C=O)c(C)n1-c1ccc(NC2CCCC2)c([N+](=O)[O-])c1
- AC50 (Cytochrome P450 2D6): 8.91 µM (inconclusive)

Structure (SMILES): CC(C)(C)c1ccc(C(=O)N/N=C/c2ccccn2)cc1
- IC50 [6]: > 20 µM (inactive)
- EC50 (Streptokinase A): > 150 µM (not active)
- EC50 (Streptococcus): 29.8 µM (active)
- EC50 [7]: 9.57 µM (active)

Structure (SMILES): O=C(Nc1ccc2c(c1)CCCN2C(=O)c1ccccc1)c1ccccc1Br
- CC50 [8]: 10.5 µM (active)
- CC50 (Vero): > 25 µM (active)

Structure (SMILES): Cc1ccccc1-n1c(=O)n(Cc2ccc(C(=O)O)cc2)c(=O)c2[nH]cnc21
- EC50 (cells [2]): > 350 µM (not active)
- EC50 (cells [3]): > 350 µM (not active)

Structure (SMILES): CN(C)CCCN(C(=O)c1ccco1)c1nc2ccc(Cl)cc2s1
- CC50 (Vero): > 25 µM (active)
